Results: patent US11505811B2, “Method for the preparation of 2,4-dihydroxybutyrate” (ADISSEO FRANCE S.A.S., priority 2012, dated 2022)
Positions count from the first letter of the chain named. Read-outs that look alike come from different tables or passages of the source.

Key:
Format in all cases: biochemical
[1] = target: T1, Escherichia coli (L)-malate dehydrogenase Ec-Mdh, wild type, SEQ ID NO: 2 (Escherichia coli, UniProt P61889); assay: OHB/oxaloacetate reductase assay (NADH oxidation at 340 nm), Ec-Mdh wild type; details: Table 6; up to 50 mM OHB; pH 7, 37° C., 0.25 mM NADH
T1 construct: made in house; host or cells: E. coli BL21 (DE3) star
T1 sequence (P61889 1-312): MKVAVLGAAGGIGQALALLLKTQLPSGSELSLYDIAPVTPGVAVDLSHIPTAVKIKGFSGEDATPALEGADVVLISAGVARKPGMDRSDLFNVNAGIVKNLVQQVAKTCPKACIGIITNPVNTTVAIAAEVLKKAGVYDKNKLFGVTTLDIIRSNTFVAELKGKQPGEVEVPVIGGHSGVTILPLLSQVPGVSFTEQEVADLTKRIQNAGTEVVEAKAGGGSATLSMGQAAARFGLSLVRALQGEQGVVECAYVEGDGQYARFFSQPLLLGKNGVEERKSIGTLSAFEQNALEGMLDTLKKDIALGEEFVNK
Text: The genes coding for (L)-malate dehydrogenase in Escherichia coli, Ec-mdh (SEQ ID NO: 1), (D)-lactate dehydrogenase in E. coli, Ec-ldhA (SEQ ID NO: 3), (L)-lactate dehydrogenase of Lactococcus lactis, Ll-ldhA (SEQ ID NO: 5), (L)-lactate dehydrogenase of Bacillus subtilis, Bs-ldh (SEQ ID NO: 7), (L)-lactate dehydrogenase of Geobacillus stearothermophilus, Gs-ldh (SEQ ID NO: 9), the two isoforms of the (L)-lactate dehydrogenase of Oryctalagus cuniculus, Oc-ldhA (SEQ ID NO: 11 and SEQ ID NO: 13), were amplified by PCR using the high-fidelity polymerase Phusion™ (Fermentas) and the primers listed in Table 1. Genomic DNAs of E. coli MG1655, L. lactis IL1403, and B. subtilis strain 168 were used as the template. The genes Oc-ldhA, and Gs-ldh were codon-optimized for expression in E. coli and synthesized by MWG Eurofins. The primers introduced restriction sites (Table 1) upstream of the start codon and downstream of the stop codon, respectively, facilitating the ligation of the digested PCR products into the corresponding sites of the pET28a+ (Novagen) expression vector using T4 DNA ligase (Fermentas). Ligation products were transformed into E. coli DH5a cells (NEB). […]

[2] = target: T2, Escherichia coli malate dehydrogenase Ec-Mdh variant R81A, SEQ ID No. 102 (Escherichia coli, UniProt P61889, R81A); assay: OHB/oxaloacetate reductase assay, Ec-Mdh R81A; details: pH 7, 37° C.
T2 sequence (P61889 with tags, fused parts or gaps R81A): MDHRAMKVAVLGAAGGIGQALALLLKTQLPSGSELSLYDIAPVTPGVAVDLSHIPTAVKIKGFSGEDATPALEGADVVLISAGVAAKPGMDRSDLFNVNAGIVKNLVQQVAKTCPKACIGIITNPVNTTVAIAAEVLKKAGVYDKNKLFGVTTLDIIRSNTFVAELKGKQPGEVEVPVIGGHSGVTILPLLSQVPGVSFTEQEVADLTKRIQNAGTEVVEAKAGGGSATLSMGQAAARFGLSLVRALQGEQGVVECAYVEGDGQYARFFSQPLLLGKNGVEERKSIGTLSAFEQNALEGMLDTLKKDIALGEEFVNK
Experimental: (§1) Enzymatic assays: The reaction mixture contained 60 mM Hepes (pH 7), 50 mM potassium chloride, 5 mM MgCl2, 0.25 mM NADH, (optionally 5 mM fructose-1,6-bisphosphate) (all products from Sigma), and appropriate amounts of purified malate or lactate dehydrogenase or cell extract. Reactions were started by adding appropriate amounts of 2-oxo-4-hydroxybutyrate (OHB), pyruvate, or oxaloacetate (OAA). Enzymatic assays were carried out at 37° C. in 96-well flat bottomed microtiter plates in a final volume of 250 μL. The reactions were followed by the characteristic absorption of NADH at 340 nm (εNADH=6.22 mM^−1 cm^−1) in a microplate reader (BioRad 680XR).
(§2) Site-directed mutagenesis of the mdh gene from E. coli was carried out as described in Example 2 using the primers listed in Table 5. Plasmid pET28-Ec-mdh was used as the template.
(§3) Mutant enzymes were expressed, purified and tested for OHB and oxaloacetate reductase activity as described in Example 1. […] The mutation R81A in Ec-Mdh was combined with additional changes in the protein sequence.

[3] = target: T3, Escherichia coli malate dehydrogenase Ec-Mdh variant R81A M85Q, SEQ ID No. 104 (Escherichia coli, UniProt P61889, M85Q/R81A); assay: OHB/oxaloacetate reductase assay, Ec-Mdh R81A M85Q; details: pH 7, 37° C.
T3 sequence (P61889 1-312 R81A/M85Q): T1 sequence (P61889 1-312) with R81A, M85Q
Experimental: as §1, §2, §3

[4] = target: T4, Escherichia coli malate dehydrogenase Ec-Mdh variant R81A M85E, SEQ ID No. 106 (Escherichia coli, UniProt P61889, M85E/R81A); assay: OHB/oxaloacetate reductase assay, Ec-Mdh R81A M85E; details: pH 7, 37° C.
T4 sequence (P61889 1-312 R81A/M85E): T1 sequence (P61889 1-312) with R81A, M85E
Experimental: as §1, §2, §3

[5] = target: T5, Escherichia coli malate dehydrogenase Ec-Mdh variant R81A M85E I12V, SEQ ID No. 110 (Escherichia coli, UniProt P61889, I12V/M85E/R81A); assay: OHB/oxaloacetate reductase assay, Ec-Mdh R81A M85E I12V; details: pH 7, 37° C.
T5 sequence (P61889 1-312 I12V/R81A/M85E): T1 sequence (P61889 1-312) with I12V, R81A, M85E
Experimental: as §1, §2, §3

[6] = target: T6, Escherichia coli malate dehydrogenase Ec-Mdh variant R81A G179D, SEQ ID No. 112 (Escherichia coli, UniProt P61889, G179D/R81A); assay: OHB/oxaloacetate reductase assay, Ec-Mdh R81A G179D; details: pH 7, 37° C.
T6 sequence (P61889 1-312 R81A/G179D): T1 sequence (P61889 1-312) with R81A, G179D
Experimental: as §1, §2, §3

[7] = target: T7, Escherichia coli malate dehydrogenase Ec-Mdh variant R81A D86S, SEQ ID No. 1114 (Escherichia coli, UniProt P61889, D86S/R81A); assay: OHB/oxaloacetate reductase assay, Ec-Mdh R81A D86S; details: pH 7, 37° C.
T7 sequence (P61889 1-312 R81A/D86S): T1 sequence (P61889 1-312) with R81A, D86S
Experimental: as §1, §2, §3

[8] = target: T8, Escherichia coli malate dehydrogenase Ec-Mdh variant R81A 112V, SEQ ID No. 115 (Escherichia coli, UniProt P61889, I12V/R81A); assay: OHB/oxaloacetate reductase assay, Ec-Mdh R81A 112V; details: pH 7, 37° C.
T8 sequence (P61889 1-312 I12V/R81A): T1 sequence (P61889 1-312) with I12V, R81A
Experimental: as §1, §2, §3

[9] = target: T9, Escherichia coli malate dehydrogenase Ec-Mdh variant R81A M85Q I12V, SEQ ID No. 108 (Escherichia coli, UniProt P61889, I12V/M85Q/R81A); assay: OHB/oxaloacetate reductase assay, Ec-Mdh R81A M85Q I12V; details: up to 0.5 mM oxaloacetate; pH 7, 37° C.; read-out: Km (OAA)
T9 sequence (P61889 1-312 I12V/R81A/M85Q): T1 sequence (P61889 1-312) with I12V, R81A, M85Q
Experimental: as §1, §2, §3

[10] = up to 50 mM OHB, read-out: Km (OHB)
[11] = up to 0.5 mM oxaloacetate, read-out: Km (OAA)

Row | SMILES | Km [1] | Km [2, 10] | Km [3, 10] | Km [4, 10] | Km [5, 10] | Km [6, 10] | Km [7, 10] | Km [8, 10] | Km [2, 11] | Km [3, 11] | Km [4, 11] | Km [9] | Km [5, 11] | Km [6, 11] | Km [7, 11] | Km [8, 11]
1 | O=C(O)C(=O)CCO [OHB, 2-oxo-4-hydroxybutyrate] | > 50 mM | > 50 mM | > 50 mM | > 50 mM | > 50 mM | > 50 mM | > 50 mM | > 50 mM |  |  |  |  |  |  |  | 
2 | O=C(O)CC(=O)C(=O)O [oxaloacetate, reference compound] |  |  |  |  |  |  |  |  | > 0.5 mM | > 0.5 mM | > 0.5 mM | > 0.5 mM | > 0.5 mM | > 0.5 mM | > 0.5 mM | > 0.5 mM
